In patent US10604554B2, “Double-acylated GLP-1 derivatives” (Novo Nordisk A/S, priority 2012, dated 2020):

Test system: Landrace Yorkshire Duroc (LYD) pigs
Test: Pharmacodynamic (PD) study in pigs, food intake
Type: in vivo, pig
Conditions: single s.c. dose 3.0 nmol/kg; for PD in pig, food intake (% of vehicle) for hours 0-24: 0-24 h; for PD in pig, food intake (% of vehicle) for hours 24-48: 24-48 h; for reduction in food intake (in words): versus vehicle
Protocol: The purpose of this experiment was to investigate the effect of a couple of Example compounds on food intake in pigs. This was done in a pharmacodynamic (PD) study as described below, in which food intake was measured from 1 to 4 days after administration of a single dose of the GLP-1 derivative, as compared to a vehicle-treated control group.
Female Landrace Yorkshire Duroc (LYD) pigs, approximately 3 months of age, weighing approximately 30-35 kg were used (n=3-4 per group). The animals were housed in a group for approximately 1 week during acclimatisation to the animal facilities. During the experimental period the animals were placed in individual pens at least 2 days before dosing and during the entire experiment for measurement of individual food intake. The animals were fed ad libitum with pig fodder (Svinefoder Danish Top) at all times both during the acclimatisation and the experimental period. Food intake was monitored on line by logging the weight of fodder every 15 minutes. The system used was Mpigwin (Ellegaard Systems, Faaborg, Denmark).
The phosphate buffer serves as vehicle. Animals are dosed with a single subcutaneous dose of the GLP-1 derivative or vehicle (dose volume 0.025 ml/kg) on the morning of day 1, and food intake is measured for 1 day after dosing. On the last day of each study, 1-4 days after dosing, a blood sample for measurement of plasma exposure of the GLP-1 derivative is taken from the heart in anaesthetised animals. The animals are thereafter euthanised with an intra-cardial overdose of pentobarbitone.
Food intake is calculated as mean±SEM food intake in 24 h intervals (0-24 h, 24-48 h, and 48-72 h). In Table 6 below the food intake is indicated as percentage of the food intake of the vehicle group in the same time interval (dosage 3.0 nmol/kg).
Statistical comparisons of the food intake in the 24 h intervals in the vehicle vs. GLP-1 derivative group are done using two-way-ANOVA repeated measures, followed by Bonferroni post-test.

Row | SMILES | PD in pig, food intake (% of vehicle) for hours 0-24 | PD in pig, food intake (% of vehicle) for hours 24-48 | PD in pig, food intake (% of vehicle) for hours 48-72 (48-72 h) | reduction in food intake (in words)
1 | CC[C@H](C)[C@H](NC(=O)[C@H](Cc1ccccc1)NC(=O)[C@H](CCC(=O)O)NC(=O)[C@H](CCCCNC(=O)[C@@H](N)CCCCNC(=O)COCCOCCNC(=O)COCCOCCNC(=O)CC[C@H](NC(=O)CCCCCCCCCCCCCCC(=O)O)C(=O)O)NC(=O)[C@H](C)NC(=O)[C@H](C)NC(=O)[C@H](CCC(N)=O)NC(=O)CNC(=O)[C@H](CCC(=O)O)NC(=O)[C@H](CC(C)C)NC(=O)[C@H](Cc1ccc(O)cc1)NC(=O)[C@H](CO)NC(=O)[C@H](CO)NC(=O)[C@@H](NC(=O)[C@H](CC(=O)O)NC(=O)[C@H](CO)NC(=O)[C@@H](NC(=O)[C@H](Cc1ccccc1)NC(=O)[C@@H](NC(=O)CNC(=O)[C@H](CCC(=O)O)NC(=O)C(C)(C)NC(=O)[C@@H](N)Cc1c[nH]cn1)[C@@H](C)O)[C@@H](C)O)C(C)C)C(=O)N[C@@H](C)C(=O)N[C@@H](Cc1c[nH]c2ccccc12)C(=O)N[C@@H](CC(C)C)C(=O)N[C@H](C(=O)N[C@@H](CCCNC(=N)N)C(=O)NCC(=O)N[C@@H](CCCNC(=N)N)C(=O)N[C@@H](CCCCNC(=O)[C@@H](N)CCCCNC(=O)COCCOCCNC(=O)COCCOCCNC(=O)CC[C@H](NC(=O)CCCCCCCCCCCCCCC(=O)O)C(=O)O)C(=O)O)C(C)C [Example 10, N^ε26-[(2S)-2-amino-6-[[2-[2-[2-[[2-[2-[2-[[(4S)-4-carboxy-4-(15-carboxypentadecanoylamino)butanoyl]amino]ethoxy]ethoxy]acetyl]amino]ethoxy]ethoxy]acetyl]amino]hexanoyl], N^ε37-[(2S)-2-amino-6-[[2-[2-[2-[[2-[2-[2-[[(4S)-4-carboxy-4-(15-carboxypentadecanoylamino)butanoyl]amino]ethoxy]ethoxy]acetyl]amino]ethoxy]ethoxy]acetyl]amino]hexanoyl]-[Aib^8,Arg^34,Lys^37]-GLP-1-(7-37)-peptide] | 105 % of vehicle | 104 % of vehicle |  | 
2 | CC[C@H](C)[C@H](NC(=O)[C@H](Cc1ccccc1)NC(=O)[C@H](CCC(=O)O)NC(=O)[C@H](CCCCNC(=O)[C@@H](N)CCCCNC(=O)[C@@H](N)CCCCNC(=O)CC[C@H](NC(=O)CCCCCCCNC(=O)CCCCCCCCCOc1ccc(C(=O)O)cc1)C(=O)O)NC(=O)[C@H](C)NC(=O)[C@H](C)NC(=O)[C@H](CCC(N)=O)NC(=O)CNC(=O)[C@H](CCC(=O)O)NC(=O)[C@H](CC(C)C)NC(=O)[C@H](Cc1ccc(O)cc1)NC(=O)[C@H](CO)NC(=O)[C@H](CO)NC(=O)[C@@H](NC(=O)[C@H](CC(=O)O)NC(=O)[C@H](CO)NC(=O)[C@@H](NC(=O)[C@H](Cc1ccccc1)NC(=O)[C@@H](NC(=O)CNC(=O)[C@H](CCC(=O)O)NC(=O)C(C)(C)NC(=O)[C@@H](N)Cc1c[nH]cn1)[C@@H](C)O)[C@@H](C)O)C(C)C)C(=O)N[C@@H](C)C(=O)N[C@@H](Cc1c[nH]c2ccccc12)C(=O)N[C@@H](CC(C)C)C(=O)N[C@H](C(=O)N[C@@H](CCCNC(=N)N)C(=O)NCC(=O)N[C@@H](CCCNC(=N)N)C(=O)N[C@@H](CCCCNC(=O)[C@@H](N)CCCCNC(=O)[C@@H](N)CCCCNC(=O)CC[C@H](NC(=O)CCCCCCCNC(=O)CCCCCCCCCOc1ccc(C(=O)O)cc1)C(=O)O)C(=O)O)C(C)C [Example 26, N^ε26-[(2S)-2-amino-6-[[(2S)-2-amino-6-[[(4S)-4-carboxy-4-[8-[10-(4-carboxyphenoxy)decanoylamino]octanoylamino]butanoyl]amino]hexanoyl]amino]hexanoyl], N^ε37-[(2S)-2-amino-6-[[(2S)-2-amino-6-[[(4S)-4-carboxy-4-[8-[10-(4-carboxyphenoxy)decanoylamino]octanoylamino]butanoyl]amino]hexanoyl]amino]hexanoyl]-[Aib^8,Arg^34,Lys^37]-GLP-1-(7-37)-peptide] | 10 % of vehicle | 26 % of vehicle | 52 % of vehicle | very nice reduction in food intake
3 | CC[C@H](C)[C@H](NC(=O)[C@H](Cc1ccccc1)NC(=O)[C@H](CCC(=O)O)NC(=O)[C@H](CCCCNC(=O)[C@@H](N)CCCCNC(=O)[C@@H](N)CCCCNC(=O)CC[C@H](NC(=O)CC[C@H](NC(=O)CCCCCCCCCCCOc1ccc(C(=O)O)cc1)C(=O)O)C(=O)O)NC(=O)[C@H](C)NC(=O)[C@H](C)NC(=O)[C@H](CCC(N)=O)NC(=O)CNC(=O)[C@H](CCC(=O)O)NC(=O)[C@H](CC(C)C)NC(=O)[C@H](Cc1ccc(O)cc1)NC(=O)[C@H](CO)NC(=O)[C@H](CO)NC(=O)[C@@H](NC(=O)[C@H](CC(=O)O)NC(=O)[C@H](CO)NC(=O)[C@@H](NC(=O)[C@H](Cc1ccccc1)NC(=O)[C@@H](NC(=O)CNC(=O)[C@H](CCC(=O)O)NC(=O)C(C)(C)NC(=O)[C@@H](N)Cc1c[nH]cn1)[C@@H](C)O)[C@@H](C)O)C(C)C)C(=O)N[C@@H](C)C(=O)N[C@@H](Cc1c[nH]c2ccccc12)C(=O)N[C@@H](CC(C)C)C(=O)N[C@H](C(=O)N[C@@H](CCCNC(=N)N)C(=O)NCC(=O)N[C@@H](CCCNC(=N)N)C(=O)N[C@@H](CCCCNC(=O)[C@@H](N)CCCCNC(=O)[C@@H](N)CCCCNC(=O)CC[C@H](NC(=O)CC[C@H](NC(=O)CCCCCCCCCCCOc1ccc(C(=O)O)cc1)C(=O)O)C(=O)O)C(=O)O)C(C)C [Example 16, N^ε26-[(2S)-2-amino-6-[[(2S)-2-amino-6-[[(4S)-4-carboxy-4-[[(4S)-4-carboxy-4-[12-(4-carboxyphenoxy)dodecanoylamino]butanoyl]amino]butanoyl]amino]hexanoyl]amino]hexanoyl], N^ε37-[(2S)-2-amino-6-[[(2S)-2-amino-6-[[(4S)-4-carboxy-4-[[(4S)-4-carboxy-4-[12-(4-carboxyphenoxy)dodecanoylamino]butanoyl]amino]butanoyl]amino]hexanoyl]amino]hexanoyl]-[Aib^8,Arg^34,Lys^37]-GLP-1-(7-37)-peptide] | 33 % of vehicle | 43 % of vehicle |  | 
4 | CC[C@H](C)[C@H](NC(=O)[C@H](Cc1ccccc1)NC(=O)[C@H](CCC(=O)O)NC(=O)[C@H](CCCCNC(=O)[C@@H](N)CCCCNC(=O)[C@@H](N)CCCCNC(=O)CC[C@H](NC(=O)CCCCCCCCCCCOc1ccc(C(=O)O)cc1)C(=O)O)NC(=O)[C@H](C)NC(=O)[C@H](C)NC(=O)[C@H](CCC(N)=O)NC(=O)CNC(=O)[C@H](CCC(=O)O)NC(=O)[C@H](CC(C)C)NC(=O)[C@H](Cc1ccc(O)cc1)NC(=O)[C@H](CO)NC(=O)[C@H](CO)NC(=O)[C@@H](NC(=O)[C@H](CC(=O)O)NC(=O)[C@H](CO)NC(=O)[C@@H](NC(=O)[C@H](Cc1ccccc1)NC(=O)[C@@H](NC(=O)CNC(=O)[C@H](CCC(=O)O)NC(=O)C(C)(C)NC(=O)[C@@H](N)Cc1c[nH]cn1)[C@@H](C)O)[C@@H](C)O)C(C)C)C(=O)N[C@@H](C)C(=O)N[C@@H](Cc1c[nH]c2ccccc12)C(=O)N[C@@H](CC(C)C)C(=O)N[C@H](C(=O)N[C@@H](CCCNC(=N)N)C(=O)NCC(=O)N[C@@H](CCCNC(=N)N)C(=O)N[C@@H](CCCCNC(=O)[C@@H](N)CCCCNC(=O)[C@@H](N)CCCCNC(=O)CC[C@H](NC(=O)CCCCCCCCCCCOc1ccc(C(=O)O)cc1)C(=O)O)C(=O)O)C(C)C [Example 7, N^ε26-[(2S)-2-amino-6-[[(2S)-2-amino-6-[[(4S)-4-carboxy-4-[12-(4-carboxyphenoxy)dodecanoylamino]butanoyl]amino]hexanoyl]amino]hexanoyl], N^ε37-[(2S)-2-amino-6-[[(2S)-2-amino-6-[[(4S)-4-carboxy-4-[12-(4-carboxyphenoxy)dodecanoylamino]butanoyl]amino]hexanoyl]amino]hexanoyl]-[Aib^8,Arg^34,Lys^37]-GLP-1-(7-37)-peptide] | 14 % of vehicle | 18 % of vehicle |  | very nice reduction in food intake
